What follows are compounds tested against FAS (Homo sapiens, UniProt P49327) (assay: FAS assay (Assay #1 residual NADPH detection or Assay #2 CoA detection with thio-reactive coumarin dye)). Conditions: average IC50 values, each compound tested two or more times; FAS Assay #1 or #2.
Chain of FAS (P49327 whole entry): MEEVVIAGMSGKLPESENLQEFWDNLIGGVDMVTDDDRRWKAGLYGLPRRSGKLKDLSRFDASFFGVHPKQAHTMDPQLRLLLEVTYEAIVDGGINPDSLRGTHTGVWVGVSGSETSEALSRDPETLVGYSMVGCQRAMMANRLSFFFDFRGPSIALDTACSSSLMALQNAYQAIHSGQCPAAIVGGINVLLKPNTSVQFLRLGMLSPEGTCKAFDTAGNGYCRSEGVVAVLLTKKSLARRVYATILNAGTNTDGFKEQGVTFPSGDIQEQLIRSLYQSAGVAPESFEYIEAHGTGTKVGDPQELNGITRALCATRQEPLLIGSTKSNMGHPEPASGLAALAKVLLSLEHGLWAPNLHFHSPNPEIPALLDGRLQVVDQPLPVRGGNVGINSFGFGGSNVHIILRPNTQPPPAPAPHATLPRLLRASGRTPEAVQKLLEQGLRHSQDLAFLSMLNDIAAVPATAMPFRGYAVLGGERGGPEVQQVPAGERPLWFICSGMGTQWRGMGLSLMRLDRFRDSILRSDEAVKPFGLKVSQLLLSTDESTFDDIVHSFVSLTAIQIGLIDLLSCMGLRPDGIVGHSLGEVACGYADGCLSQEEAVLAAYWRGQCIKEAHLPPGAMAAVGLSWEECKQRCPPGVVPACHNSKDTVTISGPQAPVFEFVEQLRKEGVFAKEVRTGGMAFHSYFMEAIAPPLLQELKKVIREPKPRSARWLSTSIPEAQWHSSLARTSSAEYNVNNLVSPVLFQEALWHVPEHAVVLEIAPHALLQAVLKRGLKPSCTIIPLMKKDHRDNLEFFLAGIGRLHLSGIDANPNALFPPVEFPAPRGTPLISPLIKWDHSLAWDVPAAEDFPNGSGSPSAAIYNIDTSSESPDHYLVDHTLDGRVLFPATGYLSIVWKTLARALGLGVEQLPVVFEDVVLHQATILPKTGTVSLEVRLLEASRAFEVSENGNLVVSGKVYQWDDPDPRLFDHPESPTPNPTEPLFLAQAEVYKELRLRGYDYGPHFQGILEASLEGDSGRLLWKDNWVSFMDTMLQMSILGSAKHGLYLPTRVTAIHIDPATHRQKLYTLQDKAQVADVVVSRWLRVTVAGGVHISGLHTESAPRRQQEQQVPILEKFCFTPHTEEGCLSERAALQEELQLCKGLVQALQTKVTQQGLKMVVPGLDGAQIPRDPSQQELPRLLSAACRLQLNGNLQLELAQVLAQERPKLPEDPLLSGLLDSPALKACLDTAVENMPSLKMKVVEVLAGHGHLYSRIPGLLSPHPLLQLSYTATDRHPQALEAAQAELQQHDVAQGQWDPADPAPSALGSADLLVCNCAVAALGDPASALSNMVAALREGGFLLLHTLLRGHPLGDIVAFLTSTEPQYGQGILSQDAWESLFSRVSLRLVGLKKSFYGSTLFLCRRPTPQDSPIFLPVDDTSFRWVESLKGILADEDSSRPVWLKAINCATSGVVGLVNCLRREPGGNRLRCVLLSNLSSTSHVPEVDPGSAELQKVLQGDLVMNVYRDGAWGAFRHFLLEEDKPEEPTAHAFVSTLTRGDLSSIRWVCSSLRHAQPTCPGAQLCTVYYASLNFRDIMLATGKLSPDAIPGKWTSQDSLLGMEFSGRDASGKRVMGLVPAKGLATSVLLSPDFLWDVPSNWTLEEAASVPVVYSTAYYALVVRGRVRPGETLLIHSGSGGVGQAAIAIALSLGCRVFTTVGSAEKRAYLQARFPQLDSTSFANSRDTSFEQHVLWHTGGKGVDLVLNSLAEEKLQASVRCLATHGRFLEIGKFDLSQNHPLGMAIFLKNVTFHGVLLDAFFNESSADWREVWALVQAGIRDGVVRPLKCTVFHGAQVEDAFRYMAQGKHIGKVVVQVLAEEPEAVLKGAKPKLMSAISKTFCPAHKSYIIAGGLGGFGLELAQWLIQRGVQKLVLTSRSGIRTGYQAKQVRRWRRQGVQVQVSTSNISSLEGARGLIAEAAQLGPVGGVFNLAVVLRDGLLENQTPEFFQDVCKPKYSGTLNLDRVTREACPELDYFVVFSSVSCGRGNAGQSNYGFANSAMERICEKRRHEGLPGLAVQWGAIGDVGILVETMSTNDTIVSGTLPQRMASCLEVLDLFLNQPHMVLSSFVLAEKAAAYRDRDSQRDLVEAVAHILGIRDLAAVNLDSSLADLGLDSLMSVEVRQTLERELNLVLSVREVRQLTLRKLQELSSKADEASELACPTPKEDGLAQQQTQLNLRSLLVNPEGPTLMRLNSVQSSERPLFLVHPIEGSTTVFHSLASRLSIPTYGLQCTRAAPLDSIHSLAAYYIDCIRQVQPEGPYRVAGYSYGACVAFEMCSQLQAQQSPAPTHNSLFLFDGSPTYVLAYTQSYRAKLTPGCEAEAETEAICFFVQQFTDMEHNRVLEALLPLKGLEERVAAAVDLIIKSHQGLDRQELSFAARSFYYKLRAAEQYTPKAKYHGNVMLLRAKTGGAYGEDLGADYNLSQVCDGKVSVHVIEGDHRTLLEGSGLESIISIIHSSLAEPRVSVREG
Assay type: biochemical
Method: FAS activity was measured through one of the two following assays.
Inhibition of FAS activity can be measured based on the detection of residual NADPH substrate after the FAS assay is quenched. This assay is run as a 10 μL, endpoint assay in 384-well format, where the reaction contains 20 μM malonyl-CoA, 2 μM acetyl-CoA, 30 μM NADPH and 40 nM FAS in 50 mM sodium phosphate, pH 7.0. The assay is run by sequentially dispensing 5 μl of a malonyl-CoA solution, then enzyme solution (containing the acetyl-CoA, and NADPH) into a black, low volume assay plate (Greiner 784076) pre-dispensed with 100 nL compound solutions in DMSO. The reaction is incubated at ambient temperature for 60 minutes, then quenched with 5 μL, of a developing solution composed of 90 μM resazurin, 0.3 IU/ml diaphorase in 50 mM sodium phosphate, pH 7.0. The developed reaction is read on a Molecular Devices Analyst or Acquest (or equivalent) plate reader using a 530 nm excitation wavelength filter, a 580 nm emission filter, and 561 nm dichroic filter. The test compounds are prepared in neat DMSO at a concentration of 10 mM. For inhibition curves, compounds are diluted using a three fold serial dilution and tested at 11 concentrations (e.g. 25 μM-0.42 nM). Curves are analysed using ActivityBase and XLfit, and results are expressed as pIC50 values.
Inhibition of FAS can also be quantified based on the detection of the CoA products with a thio-reactive coumarin dye. This assay is run as a 10 μL endpoint assay in 384-well format, where the reaction contains 20 μM malonyl-CoA, 20 μM acetyl-CoA, 40 μM NADPH and 2 nM FAS in 50 mM sodium phosphate, pH 7.0, and 0.04% Tween-20. The assay is run by adding 5 μL enzyme solution to a black, low volume assay plate (Greiner 784076) pre-dispensed with 100 nl compound solutions in DMSO. After 30 minutes, 5 μL substrate is added, and the reaction incubated at ambient temperature for an additional 60 minutes. The reaction is then quenched with 10 μL of 6M guanidine-HCl containing 50 μM CPM (7-diethylamino-3-(4′-maleimidylphenyl)-4-methylcoumarin (CPM; thio-reactive dye), and incubated for 30 minutes. The plate is read on an Envision (PerkinElmer) or equivalent plate reader using a 380 nm excitation wavelength filter, and a 486 nm emission filter. Data fitting and compound preparations are done as described above.
CCN1CC2(CCN(S(=O)(=O)c3ccc(-c4ccc5occc5c4)cc3)CC2)OCC1=O [Example 3, 9-{[4-(1-benzofuran-5-yl)phenyl]sulfonyl}-4-ethyl-1-oxa-4,9-diazaspiro[5.5]undecan-3-one] showed an IC50 of 251 nM. Work on O=C1COC2(CCN(S(=O)(=O)c3ccc(-c4ccccc4)cc3)CC2)CN1C1CC1 [Example 13, 9-(4-biphenylylsulfonyl)-4-cyclopropyl-1-oxa-4,9-diazaspiro[5.5]undecan-3-one] yielded an IC50 of 1260 nM. In the case of O=C1COC2(CCN(S(=O)(=O)c3ccc(-c4ccc5cc[nH]c5c4)cc3)CC2)CN1C1CC1 [Example 14, 4-cyclopropyl-9-{[4-(1H-indol-6-yl)phenyl]sulfonyl}-1-oxa-4,9-diazaspiro[5.5]undecan-3-one], the IC50 is reported as 40 nM. With O=C1COC2(CCN(S(=O)(=O)c3ccc(-c4cc5ccccc5o4)cc3)CC2)CN1C1CC1 [Example 26, 9-{[4-(1-benzofuran-2-yl)phenyl]sulfonyl}-4-cyclopropyl-1-oxa-4,9-diazaspiro[5.5]undecan-3-one] the IC50 was 200 nM. For O=C1COC2(CCN(S(=O)(=O)c3ccc(-c4ccc5cccnc5c4)cc3)CC2)CN1C1CC1 [Example 29, 4-cyclopropyl-9-{[4-(7-quinolinyl)phenyl]sulfonyl}-1-oxa-4,9-diazaspiro[5.5]undecan-3-one], the IC50 was 10 nM. O=C1COC2(CCN(S(=O)(=O)c3ccc(-c4ccc5cccnc5c4)cc3F)CC2)CN1C1CC1 [Example 59, 4-cyclopropyl-9-{[2-fluoro-4-(7-quinolinyl)phenyl]sulfonyl}-1-oxa-4,9-diazaspiro[5.5]undecan-3-one] gave an IC50 of 13 nM. O=C1COC2(CCN(S(=O)(=O)c3ccc(-c4ccc5[nH]ccc5c4)cc3F)CC2)CN1C1CC1 [Example 70, 4-cyclopropyl-9-{[2-fluoro-4-(1H-indol-5-yl)phenyl]sulfonyl}-1-oxa-4,9-diazaspiro[5.5]undecan-3-one] was tested, and the IC50 was 32 nM. O=C1COC2(CCN(S(=O)(=O)c3ccc(-c4ccc5scnc5c4)cc3F)CC2)CN1C1CC1 [Example 76, 9-{[4-(1,3-benzothiazol-5-yl)-2-fluorophenyl]sulfonyl}-4-cyclopropyl-1-oxa-4,9-diazaspiro[5.5]undecan-3-one] was tested, and the IC50 was 32 nM. Work on O=C1COC2(CCN(S(=O)(=O)c3ccc(-c4ccc5cnccc5c4)cc3)CC2)CN1C1CC1 [Example 86, 4-cyclopropyl-9-{[4-(6-isoquinolinyl)phenyl]sulfonyl}-1-oxa-4,9-diazaspiro[5.5]undecan-3-one] yielded an IC50 of 6 nM. Work on Cn1nc(NS(C)(=O)=O)c2cc(-c3ccc(S(=O)(=O)N4CCC5(CC4)CN(C4CC4)C(=O)CO5)cc3)ccc21 [Example 105, N-(5-{4-[(4-cyclopropyl-3-oxo-1-oxa-4,9-diazaspiro[5.5]undec-9-yl)sulfonyl]phenyl}-1-methyl-1H-indazol-3-yl)methanesulfonamide] yielded an IC50 of 63 nM.

From patent US20130237535A1, “FATTY ACID SYNTHASE INHIBITORS” (priority 2010, published 2013)
